Four molecules from ChEMBL document CHEMBL1135206, “Albumin affinity tags increase peptide half-life in vivo” (Bioorg Med Chem Lett, 2002) can be followed below.

The nature of series [1]: Plasma half-life in male New Zealand white rabbits after i.v. administration at 2.0 mg/kg. Type of series: ADME, organism-based, Oryctolagus cuniculus. The arrangement: dose 2 mg/kg, route intravenous. As to conditions: rabbit, iv.
Series [2] can be described thus: Mean retention time in male New Zealand white rabbits after i.v. administration at 2.0 mg/kg. Particulars: rabbit, in vivo, iv. On the set-up: dose 2 mg/kg, route intravenous. It is filed as ADME, organism-based, Oryctolagus cuniculus.
The nature of series [3]: Clearance in male New Zealand white rabbits after i.v. administration at 2.0 mg/kg. Type of series: ADME, organism-based, Oryctolagus cuniculus. On the set-up: dose 2 mg/kg, route intravenous. Particulars: rabbit, in vivo, iv.
The next series concerns the target T1, Coagulation factor VII (Homo sapiens, UniProt P08709).
T1 sequence (P08709 whole entry): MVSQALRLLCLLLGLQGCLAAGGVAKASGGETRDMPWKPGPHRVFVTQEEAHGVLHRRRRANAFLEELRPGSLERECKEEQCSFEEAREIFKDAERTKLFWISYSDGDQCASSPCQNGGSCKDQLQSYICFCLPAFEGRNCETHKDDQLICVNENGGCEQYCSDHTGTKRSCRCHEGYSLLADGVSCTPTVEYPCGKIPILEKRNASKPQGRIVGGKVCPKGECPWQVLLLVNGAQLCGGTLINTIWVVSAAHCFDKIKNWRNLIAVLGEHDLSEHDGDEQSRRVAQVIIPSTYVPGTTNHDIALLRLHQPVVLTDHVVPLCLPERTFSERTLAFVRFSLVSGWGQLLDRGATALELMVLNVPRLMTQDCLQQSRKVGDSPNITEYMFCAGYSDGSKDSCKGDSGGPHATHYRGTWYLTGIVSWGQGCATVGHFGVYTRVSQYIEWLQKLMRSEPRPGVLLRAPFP
Kind of series: Inhibition of amino terminally biotinylated E-76 peptide binding to immobilized fVIIa.

The next series concerns the target Albumin (Homo sapiens, UniProt P02768). Kind of series: In vitro binding affinity for human serum albumin. On the set-up: unit not given here.
The nature of series [4]: Mean retention time in male New Zealand white rabbits after administration via an indwelling catheter in an ear vein at 4.9 mg/kg. Type of series: ADME, organism-based, Oryctolagus cuniculus. On the set-up: dose 4.9 mg/kg. As to conditions: rabbit, in vivo, iv.
A short description of series [5]: Plasma half-life in male New Zealand white rabbits after administration via an indwelling catheter in an ear vein at 4.9 mg/kg. It is filed as ADME, organism-based, Oryctolagus cuniculus. The arrangement: dose 4.9 mg/kg. As to conditions: rabbit, iv.
Series [6] can be described thus: Clearance in male New Zealand white rabbits after administration via an indwelling catheter in an ear vein at 4.9 mg/kg. Type of series: ADME, organism-based, Oryctolagus cuniculus. The arrangement: dose 4.9 mg/kg. Particulars: rabbit, in vivo, iv.
Series [7] can be described thus: Mean retention time in male New Zealand white rabbits after administration via an indwelling catheter in an ear vein at 5 mg/kg. It is filed as ADME, organism-based, Oryctolagus cuniculus. The arrangement: dose 5 mg/kg. As to conditions: rabbit, in vivo, iv.
The nature of series [8]: Plasma half-life in male New Zealand white rabbits after administration via an indwelling catheter in an ear vein at 5 mg/kg. On the set-up: dose 5 mg/kg. It is filed as ADME, organism-based, Oryctolagus cuniculus. Particulars: rabbit, iv.
Series [9] is described as follows: Clearance in male New Zealand white rabbits after administration via an indwelling catheter in an ear vein at 5 mg/kg. Type of series: ADME, organism-based, Oryctolagus cuniculus. The arrangement: dose 5 mg/kg. As to conditions: rabbit, in vivo, iv.

Where a SMILES comes first, the peptide text is derived from it. Bridges are numbered along the chain shown (N, C = ends). The star is where a group is joined. X2 = O=C(CCC(=O)*)NS(=O)(=O)c1ccc2ccccc2c1; Benzoyl(4-Ph) = O=C(c1ccc(-c2ccccc2)cc1)*; X1 = CC(C)Cc1ccc([C@@H](C)C(=O)*)cc1

Albumin, sequence (P02768 whole entry): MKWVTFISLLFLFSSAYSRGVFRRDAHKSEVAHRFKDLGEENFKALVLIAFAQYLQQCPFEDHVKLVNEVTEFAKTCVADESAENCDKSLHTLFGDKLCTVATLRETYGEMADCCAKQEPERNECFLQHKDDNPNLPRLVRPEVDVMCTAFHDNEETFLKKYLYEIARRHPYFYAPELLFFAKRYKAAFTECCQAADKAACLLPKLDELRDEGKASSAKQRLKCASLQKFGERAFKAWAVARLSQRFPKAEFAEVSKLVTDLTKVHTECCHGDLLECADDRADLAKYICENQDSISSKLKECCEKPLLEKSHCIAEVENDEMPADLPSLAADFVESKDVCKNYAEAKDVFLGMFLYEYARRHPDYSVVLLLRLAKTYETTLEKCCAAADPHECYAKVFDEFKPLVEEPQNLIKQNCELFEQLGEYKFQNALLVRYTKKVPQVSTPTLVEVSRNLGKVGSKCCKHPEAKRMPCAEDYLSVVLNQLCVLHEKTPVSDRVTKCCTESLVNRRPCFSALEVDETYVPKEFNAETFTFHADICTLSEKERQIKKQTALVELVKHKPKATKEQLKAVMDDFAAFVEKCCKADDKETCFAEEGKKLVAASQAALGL

As for `CC[C@H](C)[C@@H]1NC(=O)[C@H](CCCN=C(N)N)NC(=O)[C@@H]2CCCN2C(=O)[C@H](CC(N)=O)NC(=O)[C@H](CC(=O)O)NC(=O)[C@@H](NC(=O)[C@H](CC(C)C)NC(=O)[C@H](C)NC(=O)CCC(=O)NS(=O)(=O)c2ccc3ccccc3c2)CSSC[C@@H](C(=O)N[C@@H](CCC(N)=O)C(=O)N[C@@H](Cc2ccccc2)C(=O)N[C@H](C(=O)N[C@@H](CCC(=O)O)C(=O)NCC(N)=O)C(C)C)NC(=O)[C@H](Cc2ccc(O)cc2)NC(=O)[C@H](Cc2c[nH]c3ccccc23)NC(=O)[C@H](CCCN=C(N)N)NC(=O)[C@H](CC(=O)O)NC1=O` (X2-ALCDNPRIDRWYCQFVEG-NH2; disulfide 3-13), in series [1], the half-life stood at 30 min. Moreover, in [2], the MRT was 35 min. Moreover, in series [3], the clearance came to 1.6 mL/min/kg. The same molecule registered an IC50 at Coagulation factor VII of 1 nM. This molecule had a Binding affinity on Albumin of 0.97.
For the molecule `CC[C@H](C)[C@@H]1NC(=O)[C@H](CCCN=C(N)N)NC(=O)[C@@H]2CCCN2C(=O)[C@H](CC(N)=O)NC(=O)[C@H](CC(=O)O)NC(=O)[C@@H](NC(=O)[C@H](CC(C)C)NC(=O)[C@H](C)NC(=O)[C@H](C)c2ccc(CC(C)C)cc2)CSSC[C@@H](C(=O)N[C@@H](CCC(N)=O)C(=O)N[C@@H](Cc2ccccc2)C(=O)N[C@H](C(=O)N[C@@H](CCC(=O)O)C(=O)NCC(N)=O)C(C)C)NC(=O)[C@H](Cc2ccc(O)cc2)NC(=O)[C@H](Cc2c[nH]c3ccccc23)NC(=O)[C@H](CCCN=C(N)N)NC(=O)[C@H](CC(=O)O)NC1=O` (X1-ALCDNPRIDRWYCQFVEG-NH2; disulfide 3-13), the half-life in series [1] amounted to 17 min; in series [5], 24 min. For the same molecule, the MRT is 33 min in series [4] and 19 min in [2]. Further, the clearance in [6] was found to be 1.5 mL/min/kg; in [3] it was 1.8 mL/min/kg. The molecule further had an IC50 on Coagulation factor VII of 14.6 nM. The same molecule registered a Binding affinity on Albumin of 0.76.
As to `CC[C@H](C)[C@@H]1NC(=O)[C@H](CCCN=C(N)N)NC(=O)[C@@H]2CCCN2C(=O)[C@H](CC(N)=O)NC(=O)[C@H](CC(=O)O)NC(=O)[C@@H](NC(=O)[C@H](CC(C)C)NC(=O)[C@H](C)NC(C)=O)CSSC[C@@H](C(=O)N[C@@H](CCC(N)=O)C(=O)N[C@@H](Cc2ccccc2)C(=O)N[C@H](C(=O)N[C@@H](CCC(=O)O)C(=O)NCC(N)=O)C(C)C)NC(=O)[C@H](Cc2ccc(O)cc2)NC(=O)[C@H](Cc2c[nH]c3ccccc23)NC(=O)[C@H](CCCN=C(N)N)NC(=O)[C@H](CC(=O)O)NC1=O` (Ac-ALCDNPRIDRWYCQFVEG-NH2; disulfide 3-13), in series [7], the MRT is 3.2 min. The half-life in series [8] came to 5 min. In [9], this molecule registered a clearance of 33 mL/min/kg. The molecule also displayed an IC50 on Coagulation factor VII of 1.1 nM. The Binding affinity at Albumin is recorded as 0.21.
`CC[C@H](C)[C@@H]1NC(=O)[C@H](CCCN=C(N)N)NC(=O)[C@@H]2CCCN2C(=O)[C@H](CC(N)=O)NC(=O)[C@H](CC(=O)O)NC(=O)[C@@H](NC(=O)[C@H](CC(C)C)NC(=O)[C@H](C)NC(=O)c2ccc(-c3ccccc3)cc2)CSSC[C@@H](C(=O)N[C@@H](CCC(N)=O)C(=O)N[C@@H](Cc2ccccc2)C(=O)N[C@H](C(=O)N[C@@H](CCC(=O)O)C(=O)NCC(N)=O)C(C)C)NC(=O)[C@H](Cc2ccc(O)cc2)NC(=O)[C@H](Cc2c[nH]c3ccccc23)NC(=O)[C@H](CCCN=C(N)N)NC(=O)[C@H](CC(=O)O)NC1=O` ({Benzoyl(4-Ph)}-ALCDNPRIDRWYCQFVEG-NH2; disulfide 3-13) showed an MRT in series [7] of 17 min. In [8], this molecule returned a half-life of 15 min. Further, in series [9], the clearance was found to be 4.3 mL/min/kg. Also, at Coagulation factor VII, the IC50 worked out at 4 nM. Also, at Albumin, the Binding affinity turned out to be 0.62.
